Results taken from the NIST ThermoML archive (doi:10.1021/je060411g).

Test: molar heat capacity at constant pressure
Settings: 101.33 kPa

CCC(C)(C)O [2-methylbutan-2-ol]
Settings	molar heat capacity at constant pressure [J/K/mol]
165.36 K, Crystal 2	122.85
166.24 K, Crystal 2	123.44
167.44 K, Crystal 2	123.55
167.45 K, Crystal 2	123.69
168.29 K, Crystal 2	126.14
169.53 K, Crystal 2	124.34
169.57 K, Crystal 2	124.68
170.33 K, Crystal 2	128.89
171.63 K, Crystal 2	125.44
171.7 K, Crystal 2	125.8
172.35 K, Crystal 2	131.56
173.74 K, Crystal 2	126.82
173.85 K, Crystal 2	127.21
174.35 K, Crystal 2	134.03
175.89 K, Crystal 2	128.48
176.02 K, Crystal 2	128.7
176.33 K, Crystal 2	136.74
178.07 K, Crystal 2	130.33
178.22 K, Crystal 2	130.54
178.3 K, Crystal 2	139.33
180.24 K, Crystal 2	141.75
180.29 K, Crystal 2	131.97
180.44 K, Crystal 2	132.57
182.18 K, Crystal 2	143.44
182.53 K, Crystal 2	133.47
182.64 K, Crystal 2	134.58
184.1 K, Crystal 2	145.88
184.82 K, Crystal 2	137.28
186.01 K, Crystal 2	147.63
186.94 K, Crystal 2	141.12
187.9 K, Crystal 2	148.63
189 K, Crystal 2	143.98
189.78 K, Crystal 2	150.78
191 K, Crystal 2	146.05
191.66 K, Crystal 2	151.3
192.96 K, Crystal 2	149.37
193.52 K, Crystal 2	152.71
194.88 K, Crystal 2	150.75
195.38 K, Crystal 2	154.88
196.78 K, Crystal 2	151.94
197.23 K, Crystal 2	154.68
198.65 K, Crystal 2	154.12
199.07 K, Crystal 2	156.86
199.87 K, Crystal 2	155.64
200.5 K, Crystal 2	154.04
200.9 K, Crystal 2	157.7
201.17 K, Crystal 2	157.49
202.35 K, Crystal 2	156.44
202.62 K, Crystal 2	157.61
204.18 K, Crystal 2	158.51
204.44 K, Crystal 2	159.27
206 K, Crystal 2	158.34
206.25 K, Crystal 2	159.14
207.81 K, Crystal 2	159.84
208.06 K, Crystal 2	160.6
209.61 K, Crystal 2	159.89
209.85 K, Crystal 2	161.82
211.4 K, Crystal 2	158.72
211.64 K, Crystal 2	164.89
217.83 K, Crystal 1	141.33
218.04 K, Crystal 1	144.15
219.66 K, Crystal 1	143.15
219.86 K, Crystal 1	142.88
221.49 K, Crystal 1	143.51
221.68 K, Crystal 1	143.74
223.31 K, Crystal 1	144.13
223.5 K, Crystal 1	144.13
225.12 K, Crystal 1	144.75
225.31 K, Crystal 1	144.76
226.93 K, Crystal 1	145.48
227.12 K, Crystal 1	145.55
228.73 K, Crystal 1	146.48
228.92 K, Crystal 1	146.48
230.52 K, Crystal 1	147.54
230.71 K, Crystal 1	147.5
232.31 K, Crystal 1	148.37
232.49 K, Crystal 1	148.43
234.08 K, Crystal 1	149.45
234.27 K, Crystal 1	149.58
235.86 K, Crystal 1	150.05
236.04 K, Crystal 1	150.15
237.63 K, Crystal 1	151.12
237.81 K, Crystal 1	151.14
239.39 K, Crystal 1	152.5
239.57 K, Crystal 1	152.39
240.92 K, Crystal 1	153.28
241.15 K, Crystal 1	153.19
242.15 K, Crystal 1	153.94
242.9 K, Crystal 1	154.53
243.54 K, Crystal 1	154.92
244.65 K, Crystal 1	155.65
245.28 K, Crystal 1	156.32
246.39 K, Crystal 1	157.17
247.02 K, Crystal 1	157.69
248.12 K, Crystal 1	159.18
249.84 K, Crystal 1	160.99
251.56 K, Crystal 1	163.84
253.26 K, Crystal 1	168.27
